Literature values as cited in patent publication US20040157330A1, “Compositions and methods for targeted biological delivery of molecular carriers” (Arizeke Pharmaceuticals, Inc., priority 2003, published 2004).

Biological target: human transferrin receptor (Homo sapiens, UniProt P02786)
Conditions: for binding to the human transferrin receptor: without inhibiting transferrin binding

human transferrin receptor, sequence (P02786 whole entry): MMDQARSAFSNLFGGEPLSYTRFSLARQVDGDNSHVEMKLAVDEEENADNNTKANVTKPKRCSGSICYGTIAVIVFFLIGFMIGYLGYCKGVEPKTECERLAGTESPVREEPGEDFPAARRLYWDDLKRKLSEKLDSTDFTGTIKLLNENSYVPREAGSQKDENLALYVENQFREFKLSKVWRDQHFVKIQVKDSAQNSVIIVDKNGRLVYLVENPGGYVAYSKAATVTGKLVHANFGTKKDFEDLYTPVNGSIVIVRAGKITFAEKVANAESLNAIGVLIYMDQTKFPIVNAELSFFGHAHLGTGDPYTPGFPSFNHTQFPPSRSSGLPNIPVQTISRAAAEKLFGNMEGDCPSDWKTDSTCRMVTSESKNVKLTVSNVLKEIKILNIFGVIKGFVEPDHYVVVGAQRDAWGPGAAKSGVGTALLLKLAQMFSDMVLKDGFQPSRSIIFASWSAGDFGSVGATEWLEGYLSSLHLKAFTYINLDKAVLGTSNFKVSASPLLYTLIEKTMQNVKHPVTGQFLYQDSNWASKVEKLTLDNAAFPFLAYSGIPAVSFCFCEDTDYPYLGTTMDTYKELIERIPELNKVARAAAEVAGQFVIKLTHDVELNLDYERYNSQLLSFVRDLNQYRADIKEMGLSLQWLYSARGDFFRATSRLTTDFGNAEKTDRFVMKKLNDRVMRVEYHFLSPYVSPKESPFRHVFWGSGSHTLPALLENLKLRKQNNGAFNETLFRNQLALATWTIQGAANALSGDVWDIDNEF

Substance	Kd (calculated, similar to the binding affinity of transferrin) [nM]	binding to the human transferrin receptor
THRPPMWSPVWP	15	bind specifically
HAIYPRH	–	bind specifically
